Legend:
Male C57BL6 mice [1] = test: Aβ42 administration study: GTT with glucose tracers, cardiac metabolism; assay type: in vivo
Method: Male C57BL6 mice were obtained from the Animal Resource Centre (Perth, Wash.) at 4 weeks of age and housed with 4 mice per cage on a 12 hr light/dark cycle at a temperature of 22° C. and a constant humidity with a normal rodent diet. At 12 weeks of age, mice were grouped according to body mass and composition, determined by EchoMRI. […] An i.p. glucose tolerance test (GTT) was performed on the final treatment day following an overnight fast. Mice were administered 2 g/kg lean mass of glucose including radioactive glucose tracers, prepared as follows. 100 μl of 1 μCi/μ1 glucose analogue, [^3H]-2-deoxyglucose (2-DOG), and 500 μl of 200 μCi/mL U-^14C glucose were evaporated to dryness before redissolving the radioactive tracers in 1 mL of 50% glucose. This produced a 50% glucose solution containing 100 μCi/mL [^3H]-2-DOG and 100 μCi/mL U-^14C glucose. The tail tip of each mouse was cut off and the blood glucose concentration of a blood sample was measured using an AccuCheck II glucometer (Roche). The GTT was initiated via intraperitoneal injection of the radiolabelled glucose solution (2 g/kg body weight, 10 uCi/animal) into the overnight-fasted mice. Further blood samples were taken at 15, 30, 45, 60 and 90 minutes after the injection for the measurement of blood glucose. Blood samples (30 μl) were also taken from the tail tip at each time point and diluted in 100 μl of saline. These samples were then centrifuged and the supernatant collected. 50 μl of the supernatant was diluted in 500 μl of distilled water and then suspended in 4 mL of Ultima Gold XR scintillation fluid (Packard Bioscience). Blood radioactivity was determined at each time point by performing liquid scintillation counting on each solution using the Beckman scintillation counter (LS6000 SC). At the conclusion of the GTT, mice were killed via cervical dislocation. Blood was obtained immediately following by cardiac puncture and the heart, and other tissues were immediately removed. Hearts were washed in ice cold PBS and weighed prior to being snap frozen in liquid nitrogen. The heart (30 mg), epididymal fat pad (30 mg and quadriceps skeletal muscle (30 mg) were homogenised in 1.5 ml of distilled water. The homogenate was centrifuged at 3000 rpm for 10 min at 4° C. 400 μl of the supernatant was diluted into 1.6 mL of distilled water and then suspended in 14 mL of Ultima Gold XR scintillation fluid (Packard Bioscience). The radioactivity of each sample (from both [^3H]-2-DOG6P and [^3H]-2-DOG) was determined by liquid scintillation counting using the Beckman scintillation counter (LS6000 SC).
The ^3H radioactivity was used to measure glucose uptake into each tissue.
To determine the incorporation of U-^14C glucose into triglyceride and the total triglyceride content in the heart, an extraction of triglyceride was carried out using a chloroform/methanol mixture. Samples of heart (30 mg) were hand-homogenised in 2 mL of chloroform/methanol (2:1) and the homogeniser rinsed in a further 2 mL of chloroform/methanol (2:1), and the washings being added to the original extract in 10 mL tubes. The tubes were tightly capped and mixed on a rotator overnight to maximise extraction of the triglycerides. […] The amount of U-^14C glucose clearance into the lipid fraction was measured by suspending 100 μl of the triglyceride solution in 5 mL of Ultima Gold XR scintillation fluid (Packard Bioscience), followed by scintillation counting using the Beckman scintillation counter (LS6000 SC).

Male C57BL6 mice [2] = test: Aβ42 administration study: cardiac function by echocardiography; assay type: in vivo
Method: (§1) After 4 weeks of peptide administration, cardiac function was assessed by echocardiography as follows. Mice were anaesthetised with inhalation of 1.5% isoflurane anaesthesia and echocardiography was performed using the Phillips HD15 diagnostic ultrasound system with a 15 MHz linear-array transducer by an experienced veterinarian. The velocity of blood flow through the mitral valve was analysed using Doppler mode imaging. […] Doppler imaging was also utilised to measure the velocity of blood flow through the aortic valve. The measurements were then used to calculate the ejection time, peak aortic flow and heart rate. M-mode imaging of the left ventricle was used to measure the thickness of the inter-ventricular septum (IVS), left ventricular internal diameter (LVID) and left ventricular posterior wall (LVPW) in both diastole (d) and end-systole (s) as well as systolic measures such as ejection fraction and fractional shortening. An estimation of LV mass was calculated from the m-mode imaging by using the formula (1.05[LVIDd+LVPWd+IVSd]^3−[LVIDd]^3) by Troy et al. (1972). Mice were humanely killed by cervical dislocation 1 week later. Blood was obtained immediately following by cardiac puncture and the heart, and other tissues were immediately removed. Hearts were washed in ice cold PBS and weighed prior to being snap frozen in liquid nitrogen.

Male C57BL6 mice [3] = test: Aβ42 administration study: heart gene expression and western blotting (NLRP3 inflammasome, PKD); assay type: in vivo; conditions: chronic administration
Method: (§2) Total mRNA from the tissues was extracted by homogenizing ˜20-30 milligrams of tissue in 1 ml of Trizol followed by incubation at room temperature (RT) for 5 min. 200 μL of chloroform was added to the homogenate, shaken for 15 seconds and incubated for 1 min at RT before centrifuging at 12,000 g for 10 min at 4° C. for extracting the upper aqueous phase. An equal volume (350 μl for cell lysate/450 μL for tissue) of 70% ethanol was added to cell/tissue samples and they were further purified with RNeasy spin columns (the RNeasy®min i Kit, Qiagen). Complementary DNA (cDNA) was synthesised using the SuperScript™ III transcription system (Invitrogen). cDNA was quantified by OliGreen assay (Quant-iT™ OliGreen® ssDNA Assay Kit; Invitrogen). All primers were designed in-house using the Beacon Primer Designer program software and synthesised by Gene Works (Adelaide, Australia). Primer sequence efficiency was tested over a wide concentration range. Gene expression levels were quantified using the FastStart Universal SYBR Green Master (ROX; Roche Applied-Science) on the MX3005P™ Multiplex Quantitative PCR (QPCR) system (Stratagene). Log-transformed CT values were normalised to cDNA concentration to determine relative gene expression levels.
Approximately 20 mg of ventricle tissue was homogenised in ice-cold lysis buffer (50 mM Tris pH7.5, 1 mM EDTA, 1 mM EGTA, 10% glycerol, 1% triton X-100, 50 mM NaF, 5 mM Na4P2O7, 1 mM Na3VO4, 1 mM DTT, protease inhibitor cocktail) and protein content was determined using the BCA method. […] Blocked membranes were exposed to primary antibodies towards pro-caspase-1, mature caspase 1, total PKD, PKD phosphorylated at ser744 and 748 (Cell Signalling Technology, Danvers, USA) and α-tubulin (Sigma-Aldrich, St. Louis, USA). Membranes were visualised and bands quantified by using the ChemiDoc™ XRS+ with Image Lab™ software.

Male C57BL6 mice [4] = test: Aβ42 and mGluR5 NAM administration study; assay type: in vivo; conditions: Basimglurant 1 mg/kg oral gavage or vehicle plus Aβ42 i.p. once/day; for plasma Aβ42 compared with the ScrAβ42+Veh group: FIG. 9A; for Peak E wave compared with the ScrAβ42+Veh group: FIG. 9B
Method: as §1, with “Basimglurant (MedChemExpress) was resuspended in 100% DMSO before being diluted in a hydroxypropyl cellulose solution to give a final solution containing 0.25 mg/mL Basimglurant in 10% hydroxypropyl cellulose and 5% DMSO. A vehicle solution containing 10% hydroxypropyl cellulose and 5% DMSO was also made. Aliquots of both drug and vehicle were stored at −80° C. until required. Male C57BL6 mice were obtained from the Animal Resource Centre (Perth, Wash.) at 4 weeks of age and housed with 4 mice per cage on a 12 hr light/dark cycle at a temperature of 22° C. and a constant humidity with a normal rodent diet. At 12 weeks of age, mice were grouped according to body mass and composition, determined by EchoMRI. […] After 4” for “After 4”, “weeks of drug and peptide administration,” for “weeks of peptide administration,”, “the ejection time (LVET), peak aortic” for “the ejection time, peak aortic”, “al. (1972). The myocardial performance index (MPI), a global index of both diastolic and systolic cardiac function, was calculated using the formula ([IVCT+IVRT]/LVET), by Tei et al. (1995). Mice were” for “al. (1972). Mice were”

[5] = test system: Primary mouse neonatal ventricular cardiomyocytes; test: Neonatal ventricular cardiomyocyte experiments, antagonist studies (gene expression); assay type: cell-based; conditions: 10 uM, cardiomyocytes exposed to Aβ42, FIG. 6B
Method: as §2, with “Primer sequence efficiency was tested over a wide concentration range.” left out, “Log-transformed CT values were normalised to cDNA concentration to determine relative gene expression levels.” left out
Neonatal ventricular cardiomyocyte experiments: Primary mouse neonatal ventricular cardiomyocytes were isolated from one day old neonate mice. […] 48 hr after infection, cells were harvested and homogenized in protein lysis buffer, total protein concentration was determined and western blotting was performed, as described above. […]

Male C57BL6 mice [6] = test: Aβ40 administration study; assay type: in vivo; parameters: dose or concentration left out as unconfirmed; conditions: i.p. for 5 weeks vs ScrAβ40, FIG. 11A
Method: Aβ40 administration study: Lyophilised recombinant Aβ40 (Millipore) and scrambled control peptide (ScrAβ40; Millipore) were resuspended in 1% NH4OH and aliquoted at 200 ng/ml in H2O and stored at −80° C. for no longer than 4 weeks. Male C57BL6 mice were obtained from the Animal Resource Centre (Perth, Wash.) at 4 weeks of age and housed with 4 mice per cage on a 12 hr light/dark cycle at a temperature of 22° C. and a constant humidity with a normal rodent diet. At 12 weeks of age, mice were grouped according to body mass and composition, determined by EchoMRI. […] After 4 weeks of peptide administration, cardiac function was assessed by echocardiography as follows. Mice were anaesthetised with inhalation of 1.5% isoflurane anaesthesia and echocardiography was performed using the Phillips HD15 diagnostic ultrasound system with a 15 MHz linear-array transducer by an experienced veterinarian. The velocity of blood flow through the mitral valve was analysed using Doppler mode imaging. […] Doppler imaging was also utilised to measure the velocity of blood flow through the aortic valve. […] An estimation of LV mass was calculated from the m-mode imaging by using the formula (1.05 [LVIDd+LVPWd+IVSd]^3−[LVIDd]^3) by Troy et al. (1972). […] Plasma […] was measured using a high sensitivity ELISA kit (Wako Diagnostics) and plasma that was diluted 1:10 with assay buffer.

[7] = test system: mice on HFD (established obesity); test: Basimglurant-High Fat Diet (HFD) treatment study; assay type: in vivo; conditions: obese mice
Method: Basimglurant-High Fat Diet (HFD) treatment study: At 12 weeks of age, mice (n=30) were placed on a HFD with 43% of calories from fat (23.5% by weight; SF04-001 High Fat Rodent Diet Based on D12451, Specialty Feeds, Glen Forrest, Wash.). After 13 weeks of the diet period, echocardiography was performed on all mice to obtain pre-drug treatment measures of cardiac function. Mice were allocated to treatment groups so that measures of cardiac function and morphology were matched as best as possible. Basimglurant (MedChemExpress) was resuspended in 100% DMSO before being diluted in a hydroxypropyl cellulose solution to give a final solution containing 0.25 mg/mL Basimglurant in 10% hydroxypropyl cellulose and 5% DMSO. A vehicle solution containing 10% hydroxypropyl cellulose and 5% DMSO was also made. Aliquots of both drug and vehicle were stored at −80° C. until required. The HFD/Basimglurant group was administered 1 mg/kg of Basimglurant per day by oral gavage, while the HFD/control group received an equivalent volume of vehicle. Echocardiography was then performed following 4 weeks of the treatment period to obtain post-drug treatment measures of cardiac function. Following 5 weeks of the drug administration, mice were humanely killed via cervical dislocation and blood was immediately obtained via cardiac puncture and stored in a heparinised tube. […]

Molecule: Aβ42: Lyophilised recombinant Aβ42 (Millipore), amyloid beta peptide of 42 amino acids
- whole body glucose tolerance or plasma insulin throughout the GTT (Male C57BL6 mice [1]; after five weeks of peptide, vs ScrAβ42): no difference
- glucose incorporation into TAG (14C-glucose labelling) (Male C57BL6 mice [1]; heart, FIG. 1C): greater
- total TAG (Male C57BL6 mice [1]; heart, FIG. 1D): increased
- cardiac gene expression (inflammation, endoplasmic reticulum stress) (Male C57BL6 mice [1]; heart, FIG. 1E): gene expression changes indicative of cardiac stress responses
- increase in plasma Aβ42 compared with administration of ScrAβ42 (Male C57BL6 mice [1]; i.p. 1 μg/day for five weeks, FIG. 1A): approximately 3 fold
- deceleration time (Male C57BL6 mice [2]; echocardiography, vs ScrAβ42, FIG. 2D): increased
- E normalised by isovolumetric relaxation time (IVRT) (Male C57BL6 mice [2]; echocardiography, vs ScrAβ42, FIG. 2E): no significant difference
- fractional shortening (Male C57BL6 mice [2]; echocardiography, vs ScrAβ42, FIG. 2F): reduced
- ejection fraction (Male C57BL6 mice [2]; echocardiography, vs ScrAβ42, FIG. 2G): reduced
- gross heart weight (Male C57BL6 mice [2]; five weeks of peptide vs ScrAβ42, FIG. 2A): no effect
- internal dimensions of the left ventricle (LVIDd) (Male C57BL6 mice [2]; five weeks of peptide vs ScrAβ42, FIG. 2B): no effect
- phosphorylation of PKD at ser744 and 748 (Male C57BL6 mice [3]; FIG. 6A): increased
- expression of genes associated with priming of the NLRP3 inflammasome (Nlrp3, Ifna, Il18) (Male C57BL6 mice [3]; heart, FIG. 5A): increased
- mature caspase 1 (Male C57BL6 mice [3]; western blot, FIG. 5B): increased
- pro-caspase 1 (Male C57BL6 mice [3]; western blot, FIG. 5B): increased
- plasma Aβ42 compared with the ScrAβ42+Veh group (Male C57BL6 mice [4]): elevated
- Peak E wave compared with the ScrAβ42+Veh group (Male C57BL6 mice [4]; echocardiography after 4 weeks): reduced

Molecule: O=C1NCCCc2c1oc1ccc(O)cc21 [CID755673]
- Aβ42-induced increase in inflammatory gene expression [5]: prevented

Molecule: Aβ40: Lyophilised recombinant Aβ40 (Millipore), amyloid beta peptide
- plasma Aβ40 (Male C57BL6 mice [6]): significantly increased

Molecule: Cc1nc(C#Cc2ccnc(Cl)c2)c(C)n1-c1ccc(F)cc1 [Basimglurant]
- plasma Aβ42 compared with the ScrAβ42+Veh group (Male C57BL6 mice [4]): significantly increased
- Peak E wave compared with the ScrAβ42+Veh group (Male C57BL6 mice [4]; echocardiography after 4 weeks): reduced in the Aβ42+Veh group, but not in the Aβ42+Basimglurant groups
- myocardial performance index (MPI) compared with the ScrAβ42+Veh group (Male C57BL6 mice [4]; echocardiography after 4 weeks, FIG. 9C): increased in the Aβ42+Veh group, but not in the Aβ42+Basimglurant groups
- DT after treatment ([7]; 13 weeks HFD then 4 weeks daily 1 mg/kg oral gavage, FIG. 12A): 100 % of baseline levels
- plasma Aβ42 levels ([7]; daily 1 mg/kg oral gavage, FIG. 12B): did not have any effect
